In US9073940B2, “Tricyclic pyrazol amine derivatives” (MERCK SERONO SA, priority 2009, dated 2015):

tested on: 4 PI3K isoforms (Human recombinant GST-PI3K); assay: PI3K scintillation proximity assay, best IC50 obtained with the four isoforms (alpha, beta, delta, gamma); format: biochemical; conditions: best IC50 obtained with the four isoforms of PI3K; read-out: Best potency measured on the 4 PI3K isoforms

| SMILES | IC50 [nM] |
| --- | --- |
| O=C(c1nn(C2CCCN(CCN3CC(F)(F)C3)C2)c2c1CS(=O)(=O)c1ccccc1-2)N1CCOCC1 (stereo not drawn) [Example 273, 1-{1-[2-(3,3-Difluoroazetidin-1-yl)ethyl]piperidin-3-yl}-3-(morpholin-4-ylcarbonyl)-1,4-dihydrothiochromeno[4,3-c]pyrazole 5,5-dioxide] | 36 |
| O=C(CCN1CCC[C@H](n2nc(C(=O)N3CCOCC3)c3c2-c2ccccc2S(=O)(=O)C3)C1)N1CCC(F)(F)C1 (stereo in doubt) [Example 441, 1-{1-[3-(3,3-difluoropyrrolidin-1-yl)-3-oxopropyl]piperidin-3-yl}-3-(morpholin-4-ylcarbonyl)-1,4-dihydrothiochromeno[4,3-c]pyrazole 5,5-dioxide] | 41 |
| O=C(c1nn(C2CCCN(CCC3CCOCC3)C2)c2c1CS(=O)(=O)c1c(Cl)cccc1-2)N1CCOCC1 (stereo not drawn) [Example 301, 6-Chloro-3-(morpholin-4-ylcarbonyl)-1-{1-[2-(tetrahydro-2H-pyran-4-yl)ethyl]piperidin-3-yl}-1,4-dihydrothiochromeno[4,3-c]pyrazole 5.5-dioxide] | 38 |
| O=C(c1nn(C2CCCN(CCN3CCOCC3)C2)c2c1CS(=O)(=O)c1c(Cl)cccc1-2)N1CCOCC1 (stereo not drawn) [Example 309, 6-Chloro-3-(morpholin-4-ylcarbonyl)-1-[1-(2-morpholin-4-ylethyl)piperidin-3-yl]-1,4-dihydrothiochromeno[4,3-c]pyrazole 5,5-dioxide] | 120 |
| O=C(c1nn(C2CCCC(C(=O)N3CCCCC3)C2)c2c1CS(=O)(=O)c1ccccc1-2)N1CCOCC1 (stereo not drawn) [Example 193, 3-(Morpholin-4-ylcarbonyl)-1-[3-(piperidin-1-ylcarbonyl)cyclohexyl]-1,4-dihydrothiochromeno[4,3-c]pyrazole 5,5-dioxide] | 362 |
| O=C(c1nn([C@H]2CCCN(CCN3CCCC3)C2)c2c1CS(=O)(=O)c1ccccc1-2)N1CCOCC1 (stereo in doubt) [Example 450, 3-(morpholin-4-ylcarbonyl)-1-[1-(2-pyrrolidin-1-ylethyl)piperidin-3-yl]-1,4-dihydrothiochromeno[4,3-c]pyrazole 5,5-dioxide] | 7 |
| O=C(c1nn(C2CCCN(c3cccnc3)C2)c2c1CS(=O)(=O)c1ccccc1-2)N1CCOCC1 (single isomer, unassigned) [Example 484, 3-(morpholin-4-ylcarbonyl)-1-[1-pyridin-3-ylpiperidin-3-yl]-1,4-dihydrothiochromeno[4,3-c]pyrazole 5,5-dioxide] | 48 |
| O=C(c1nn(C2CCN(CCCl)C2)c2c1CS(=O)(=O)c1ccccc1-2)N1CCOCC1 (stereo not drawn) [Example 274] | 305 |
| O=C(c1nn(CC2CCOCC2)c2c1CS(=O)(=O)c1ccccc1-2)N1CCOCC1 [Example 52, 3-(morpholin-4-ylcarbonyl)-1-(tetrahydro-2H-pyran-4-ylmethyl)-1,4-dihydrothiochromeno[4,3-c]pyrazole 5,5-dioxide] | 789 |
| O=C(c1nn(C2CCCCC2)c2c1CS(=O)(=O)c1cc(Br)ccc1-2)N1CCOCC1 [Example 128, 7-Bromo-1-cyclohexyl-3-(morpholin-4-ylcarbonyl)-1,4-dihydrothiochromeno[4,3-c]pyrazole 5,5-dioxide] | 691 |
| Cn1nc(C(=O)N2CCOCC2)c2c1-c1cc([N+](=O)[O-])ccc1S(=O)(=O)C2 [Example 35, 1-methyl-3-(morpholin-4-ylcarbonyl)-8-nitro-1,4-dihydrothiochromeno[4,3-c]pyrazole 5,5-dioxide] | 2770 |
| O=C(c1nn(C2CCN(CCO)CC2)c2c1CS(=O)(=O)c1ccccc1-2)N1CCOCC1 [Example 121, 2-{4-[3-(Morpholin-4-ylcarbonyl)-5,5-dioxidothiochromeno[4,3-c]pyrazol-1 (4H)-yl]piperidin-1-yl}ethanol] | 1760 |
| O=C(c1nn(C2CCC(CN3CCOCC3)CC2)c2c1CS(=O)(=O)c1ccccc1-2)N1CCOCC1 (stereo not drawn) [Example 215, 3-(Morpholin-4-ylcarbonyl)-1-[4-(morpholin-4-ylmethyl)cyclohexyl]-1,4-dihydrothiochromeno[4,3-c]pyrazole 5,5-dioxide] | 912 |
| O=C(c1nn([C@@H]2CCCN(CCN3CCOCC3)C2)c2c1CS(=O)(=O)c1ccccc1-2)N1CCOCC1 (single isomer, unassigned) [Example 348, 3-(morpholin-4-ylcarbonyl)-1-[1-(2-morpholin-4-ylethyl)piperidin-3-yl]-1,4-dihydrothiochromeno[4,3-c]pyrazole 5,5-dioxide] | 1280 |
| Cn1nc(C(=O)N2CCOCC2)c2c1-c1cc(F)ccc1S(=O)(=O)C2 [Example 16, 8-fluoro-1-methyl-3-(morpholin-4-ylcarbonyl)-1,4-dihydrothiochromeno[4,3-c]pyrazole 5,5-dioxide] | 2220 |
| O=C(c1nn(C2CCN(CCN3CCOCC3)CC2)c2c1CS(=O)(=O)c1ccccc1-2)N1CCOCC1 [Example 290, 3-(Morpholin-4-ylcarbonyl)-1-[1-(2-morpholin-4-ylethyl)piperidin-4-yl]-1,4-dihydrothiochromeno[4,3-c]pyrazole 5,5-dioxide] | 369 |
| COCC(=O)N1CCC[C@H](n2nc(C(=O)N3CCOCC3)c3c2-c2ccccc2S(=O)(=O)C3)C1 (stereo in doubt) [Example 447, 1-[1-(methoxyacetyl)piperidin-3-yl]-3-(morpholin-4-ylcarbonyl)-1,4-dihydrothiochromeno[4,3-c]pyrazole 5,5-dioxide] | 261 |

Results, then the compound that gave them:

| IC50 [nM] | SMILES |
| --- | --- |
| 240 | COC1CCN(Cc2cccc(-n3nc(C(=O)N4CCOCC4)c4c3-c3ccccc3S(=O)(=O)C4)c2)CC1 [Example 234, 1-{3-[(4-Methoxypiperidin-1-yl)methyl]phenyl}-3-(morpholin-4-ylcarbonyl)-1,4-dihydrothiochromeno[4,3-c]pyrazole 5,5-dioxide] |
| 1110 | COCCNC(=O)c1cccc(-n2nc(C(=O)N3CCOCC3)c3c2-c2ccccc2S(=O)(=O)C3)c1 [Example 126, N-(2-Methoxyethyl)-3-[3-(morpholin-4-ylcarbonyl)-5,5-dioxidothiochromeno[4,3-c]pyrazol-1 (4H)-yl]benzamide] |
| 2590 | CCc1nc(-c2cccc(-n3nc(C(=O)N4CCOCC4)c4c3-c3ccccc3S(=O)(=O)C4)c2)no1 [Example 199, 1-[3-(5-Ethyl-1,2,4-oxadiazol-3-yl)phenyl]-3-(morpholin-4-ylcarbonyl)-1,4-dihydrothiochromeno[4,3-c]pyrazole 5,5-dioxide] |
| 184 | Cn1cc(-c2cccc(-n3nc(C(=O)N4CCOCC4)c4c3-c3ccccc3S(=O)(=O)C4)c2)cn1 [Example 185, 1-[3-(1-Methyl-1H-pyrazol-4-yl)phenyl]-3-(morpholin-4-ylcarbonyl)-1,4-dihydrothiochromeno[4,3-c]pyrazole 5,5-dioxide] |
| 5500 | O=C(c1nn(-c2ccccc2Br)c2c1CS(=O)(=O)c1ccccc1-2)N1CCOCC1 [Example 20, 1-(2-bromophenyl)-3-(morpholin-4-ylcarbonyl)-1,4-dihydrothiochromeno[4,3-c]pyrazole 5,5-dioxide] |
| 14800 | COc1ccccc1-n1nc(C(=O)N2CCOCC2)c2c1-c1ccccc1S(=O)(=O)C2 [Example 313, 1-(2-Methoxyphenyl)-3-(morpholin-4-ylcarbonyl)-1,4-dihydrothiochromeno[4,3-c]pyrazole 5,5-dioxide] |
| 987 | O=C(c1nn(-c2ccccc2)c2c1CS(=O)(=O)c1ccc(F)cc1-2)N1CCOCC1 [Example 17, 8-fluoro-3-(morpholin-4-ylcarbonyl)-1-phenyl-1,4-dihydrothiochromeno[4,3-c]pyrazole 5,5-dioxide] |
| 229 | O=C(c1nn(-c2ccc(CN3CC(F)C3)cc2)c2c1CS(=O)(=O)c1ccccc1-2)N1CCOCC1 [Example 430, 1-{4-[(3-Fluoroazetidin-1-yl)methyl]phenyl}-3-(morpholin-4-ylcarbonyl)-1,4-dihydrothiochromeno[4,3-c]pyrazole 5,5-dioxide] |
| 639 | O=C(c1nn(-c2cccc(CN3CCS(=O)(=O)CC3)c2)c2c1CS(=O)(=O)c1ccccc1-2)N1CCOCC1 [Example 247, 1-{3-[(1,1-Dioxidothiomorpholin-4-yl)methyl]phenyl}-3-(morpholin-4-ylcarbonyl)-1,4-dihydrothiochromeno[4,3-c]pyrazole 5,5-dioxide] |
| 395 | O=C(c1nn(-c2ccc(CN3CC(F)(F)C3)cc2)c2c1CS(=O)(=O)c1ccccc1-2)N1CCOCC1 [Example 271, 1-{4-[(3,3-Difluoroazetidin-1-yl)methyl]phenyl}-3-(morpholin-4-ylcarbonyl)-1,4-dihydrothiochromeno[4,3-c]pyrazole 5,5-dioxide] |
| 120 | CC1(C)CN(Cc2ccc(-n3nc(C(=O)N4CCOCC4)c4c3-c3ccccc3S(=O)(=O)C4)cc2)CCO1 [Example 437, 1-{4-[(2,2-Dimethylmorpholin-4-yl)methyl]phenyl}-3-(morpholin-4-ylcarbonyl)-1,4-dihydrothiochromeno[4,3-c]pyrazole 5,5-dioxide] |
| 4040 | Cc1ccncc1-n1nc(C(=O)N2CCOCC2)c2c1-c1ccccc1S(=O)(=O)C2 [Example 31, 1-(4-methylpyridin-3-yl)-3-(morpholin-4-ylcarbonyl)-1,4-dihydrothiochromeno[4,3-c]pyrazole 5,5-dioxide] |
| 113 | COCCN(C)Cc1ccc(-n2nc(C(=O)N3CCOCC3)c3c2-c2ccccc2S(=O)(=O)C3)cc1 [Example 426, 2-Methoxy-N-methyl-N-{4-[3-(morpholin-4-ylcarbonyl)-5,5-dioxidothiochromeno[4,3-c]pyrazol-1(4H)-yl]benzyl}ethanamine] |
| 516 | O=C(c1nn(-c2cccc(CN3CCCC3)c2)c2c1CS(=O)(=O)c1ccccc1-2)N1CCOCC1 [Example 245, 3-(Morpholin-4-ylcarbonyl)-1-[3-(pyrrolidin-1-ylmethyl)phenyl]-1,4-dihydrothiochromeno[4,3-c]pyrazole 5,5-dioxide] |

same assay, conditions: inhibition at 20 μM

| SMILES | Best potency measured on the 4 PI3K isoforms, % inh @20 μM [% inh @20 μM] |
| --- | --- |
| O=C(Nc1cccc2c1S(=O)(=O)Cc1c(C(=O)N3CCOCC3)nn(-c3ccccc3)c1-2)c1ccccc1 [Example 318] | 10 |
| CS(=O)(=O)c1ccccc1-n1nc(C(=O)N2CCOCC2)c2c1-c1ccccc1S(=O)(=O)C2 [Example 314] | 45 |
